US20250179066A1, “ZWITTERIONIC ANTIBACTERIAL COMPOUNDS” (Hoffmann-La Roche Inc., priority 2022, published 2025)

System: Acinetobacter baumannii ATCC17961
Test: Antimicrobial susceptibility testing: 90% growth inhibitory concentration (IC90) determination
Format: cell-based
Settings: Acinetobacter baumannii, ATCC17961, 16 h, 90% growth inhibitory concentration against Acinetobacter baumannii ATCC17961, Iso-Sensitest broth, OD 600 nm over 16 h; read-out: ATCC 17961 IC90
Summary of the method: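 OD600 monitored each minute over 16 h at 35±2° C for bacteria (~5×10^5 CFU/mL final) in Iso-Sensitest medium with 10-point twofold compound series (e.g. 10-0.0195 μM final). Concentration giving 90% growth inhibition in log phase reported as IC90.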

First: Cc1cc(NC(=O)c2ncc(-c3cn(-c4ccc(O)cc4F)nc3C(F)(F)F)n2C)ccc1C(=O)N1CCN(C(=O)[C@H]2CC[N@@+](CCCN)(CC(=O)O)CC2)CC1 [Example 110, cis-2-[1-(3-aminopropyl)-4-[4-[4-[[5-[1-(2-fluoro-4-hydroxy-phenyl)-3-(trifluoromethyl)pyrazol-4-yl]-1-methyl-imidazole-2-carbonyl]amino]-2-methyl-benzoyl]piperazine-1-carbonyl]piperidin-1-ium-1-yl]acetic acid. 1:1 2,2,2-trifluoroacetate]
Second: Cn1c(-c2cn(-c3ccc(N)cc3F)nc2C(F)(F)F)cnc1C(=O)Nc1ccc(C(=O)N2CCN(C(=O)C3CC[N+](CCCO)(CC(=O)O)CC3)CC2)c(Cl)c1 (stereo not shown) [Example 159, 2-[4-[4-[4-[[5-[1-(4-amino-2-fluoro-phenyl)-3-(trifluoromethyl)pyrazol-4-yl]-1-methyl-imidazole-2-carbonyl]amino]-2-chloro-benzoyl]piperazine-1-carbonyl]-1-(3-hydroxypropyl)piperidin-1-ium-1-yl]acetic acid. 1:1 2,2,2-trifluoroacetate]
The IC90 of the first is 3.1-fold lower: 207 nM for the first, 647 nM for the second.

`Cn1c(-c2cn(-c3ccc(NCCCN)cn3)nc2C(F)(F)F)cnc1C(=O)Nc1ccc(C(=O)N2CCN(C(=O)[C@H]3CC[N@+](CC(=O)O)(CC4CNC4)CC3)CC2)c(Cl)c1` [Example 15, cis-2-[4-[4-[4-[[5-[1-[5-(3-aminopropylamino)-2-pyridyl]-3-(trifluoromethyl)pyrazol-4-yl]-1-methyl-imidazole-2-carbonyl]amino]-2-chloro-benzoyl]piperazine-1-carbonyl]-1-(azetidin-3-ylmethyl)piperidin-1-ium-1-yl]acetic acid. 1:1 2,2,2-trifluoroacetic acid. 1:1 2,2,2-trifluoroacetate] and `Cn1c(-c2cn(-c3ccc4[nH]ccc4n3)nc2C(F)(F)F)cnc1C(=O)Nc1ccc(C(=O)N2CCN(C(=O)[C@H]3CC[N@+](CC(=O)O)(CC4CNC4)CC3)CC2)c(F)c1` [Example 133, cis-2-[1-(azetidin-3-ylmethyl)-4-[4-[2-fluoro-4-[[1-methyl-5-[1-(1H-pyrrolo[3,2-b]pyridin-5-yl)-3-(trifluoromethyl)pyrazol-4-yl]imidazole-2-carbonyl]amino]benzoyl]piperazine-1-carbonyl]piperidin-1-ium-1-yl]acetic acid. 1:1 2,2,2-trifluoroacetate] are within 1.5-fold of each other in IC90: 210 nM for the first, 146 nM for the second.

Compared with `CN(C)C(=O)c1c[nH]c2cc(-n3cc(-c4cnc(C(=O)Nc5ccc(C(=O)N6CCN(C(=O)[C@H]7CC[N@+](CC(=O)O)(CC8CNC8)CC7)CC6)c(Cl)c5)n4C)c(C(F)(F)F)n3)ncc12` [Example 172, cis-2-[1-(azetidin-3-ylmethyl)-4-[4-[2-chloro-4-[[5-[1-[3-(dimethylcarbamoyl)-1H-pyrrolo[3,2-c]pyridin-6-yl]-3-(trifluoromethyl)pyrazol-4-yl]-1-methyl-imidazole-2-carbonyl]amino]benzoyl]piperazine-1-carbonyl]piperidin-1-ium-1-yl]acetic acid. 1:1 2,2,2-trifluoroacetate], `CN(C)S(=O)(=O)n1c(CCO)cc2cnc(-n3cc(-c4cnc(C(=O)Nc5ccc(C(=O)N6CCN(C(=O)[C@H]7CC[N@+](CC(=O)O)(CC8CNC8)CC7)CC6)c(Cl)c5)n4C)c(C(F)(F)F)n3)cc21` [Example 158, cis-2-[1-(azetidin-3-ylmethyl)-4-[4-[2-chloro-4-[[5-[1-[1-(dimethylsulfamoyl)-2-(2-hydroxyethyl)pyrrolo[3,2-c]pyridin-6-yl]-3-(trifluoromethyl)pyrazol-4-yl]-1-methyl-imidazole-2-carbonyl]amino]benzoyl]piperazine-1-carbonyl]piperidin-1-ium-1-yl]acetic acid;formate] is 4-fold higher in IC90: 194 nM for the first, 783 nM for the second.

`CNc1ccc(-n2cc(-c3cnc(C(=O)Nc4ccc(C(=O)N5CCN(C(=O)[C@H]6CC[N@+](CC(=O)O)(CC7CNC7)CC6)CC5)c(F)c4)n3C)c(C(F)(F)F)n2)c(F)c1` [Example 108, cis-2-[1-(azetidin-3-ylmethyl)-4-[4-[2-fluoro-4-[[5-[1-[2-fluoro-4-(methylamino)phenyl]-3-(trifluoromethyl)pyrazol-4-yl]-1-methyl-imidazole-2-carbonyl]amino]benzoyl]piperazine-1-carbonyl]piperidin-1-ium-1-yl]acetic acid; 2,2,2-trifluoroacetate] was tested, and the IC90 was 58.7 nM.
